Results: ChEMBL document CHEMBL1153753, “Structure-activity relationships and mechanism of action of antitumor bis 8-hydroxyquinoline substituted benzylamines” (Eur J Med Chem, 2010)
pEC50, pIC50: −log10 of the molar value. The source made the active and inactive calls.

Assays:
[1] = Antiproliferative activity against human U87 cells expressing GFP after 3 days by flash-cytometry; assay type: functional, U-87MG ATCC; settings: U-87 MG, 72 h, read-out: ED50 (the source's name)
U-87MG ATCC [2] = assay: Antiproliferative activity against human U87 cells expressing GFP assessed as reduction in cell density at 20 uM by flash-cytometry; assay type: functional, cell-based
[3] = Cytotoxicity against human U373 cells by MTT assay; assay type: functional, cell-based, U-373MG ATCC; settings: U373 MG
[4] = Disregulation of endoplasmic reticulum stress responsive gene expression in human U87 cells assessed as change in Chop mRNA level at 0.5 uM after 16 hrs by microarray analysis relative to untreated control; assay type: functional, cell-based; settings: U-87MG ATCC
[5] = Disregulation of endoplasmic reticulum stress responsive gene expression in human U87 cells assessed as change in ATF4 mRNA level at 0.5 uM after 16 hrs by microarray analysis relative to untreated control; assay type: functional, cell-based; settings: U-87MG ATCC
[6] = Disregulation of endoplasmic reticulum stress responsive gene expression in human U87 cells assessed as change in RGS16 mRNA level at 0.5 uM after 3 hrs by microarray analysis relative to untreated control; assay type: functional, cell-based; settings: U-87MG ATCC
[7] = Disregulation of endoplasmic reticulum stress responsive gene expression in human U87 cells assessed as change in PUMA mRNA level at 0.5 uM after 16 hrs by microarray analysis relative to untreated control; assay type: functional, cell-based; settings: U-87MG ATCC
[8] = Disregulation of DNA-damage and oxidative stress responsive gene expression in human U87 cells assessed as change in GADD45A mRNA level at 0.5 uM after 16 hrs by microarray analysis relative to untreated control; assay type: functional, U-87MG ATCC
[9] = Disregulation of DNA-damage and oxidative stress responsive gene expression in human U87 cells assessed as change in DDIT4 mRNA level at 0.5 uM after 16 hrs by microarray analysis relative to untreated control; assay type: functional, U-87MG ATCC
[10] = Disregulation of inflammation related gene expression in human U87 cells assessed as change in IL6 mRNA level at 0.5 uM after 16 hrs by microarray analysis relative to untreated control; assay type: functional, cell-based; settings: U-87MG ATCC
[11] = Disregulation of inflammation related gene expression in human U87 cells assessed as change in EREG mRNA level at 0.5 uM after 3 hrs by microarray analysis relative to untreated control; assay type: functional, cell-based; settings: U-87MG ATCC
[12] = Disregulation of inflammation related gene expression in human U87 cells assessed as change in IFRD1 mRNA level at 0.5 uM after 16 hrs by microarray analysis relative to untreated control; assay type: functional, cell-based; settings: U-87MG ATCC
[13] = Disregulation of inflammation related gene expression in human U87 cells assessed as change in CCL17 mRNA level at 0.5 uM after 3 hrs by microarray analysis relative to untreated control; assay type: functional, cell-based; settings: U-87MG ATCC
[14] = Disregulation of inflammation related gene expression in human U87 cells assessed as change in CXCL3 mRNA level at 0.5 uM after 16 hrs by microarray analysis relative to untreated control; assay type: functional, cell-based; settings: U-87MG ATCC
[15] = Disregulation of apoptosis related gene expression in human U87 cells assessed as change in NOXA mRNA level at 0.5 uM after 3 hrs by microarray analysis relative to untreated control; assay type: functional, cell-based; settings: U-87MG ATCC
[16] = Disregulation of apoptosis related gene expression in human U87 cells assessed as change in BIM mRNA level at 0.5 uM after 16 hrs by microarray analysis relative to untreated control; assay type: functional, cell-based; settings: U-87MG ATCC
[17] = Disregulation of apoptosis related gene expression in human U87 cells assessed as change in FAS mRNA level at 0.5 uM after 16 hrs by microarray analysis relative to untreated control; assay type: functional, cell-based; settings: U-87MG ATCC
[18] = Disregulation of apoptosis related gene expression in human U87 cells assessed as change in GDF15 mRNA level at 0.5 uM after 16 hrs by microarray analysis relative to untreated control; assay type: functional, cell-based; settings: U-87MG ATCC
[19] = Disregulation of cell survival related gene expression in human U87 cells assessed as change in BCL2L10 mRNA level at 0.5 uM after 16 hrs by microarray analysis relative to untreated control; assay type: functional, cell-based; settings: U-87MG ATCC
[20] = Disregulation of cell survival related gene expression in human U87 cells assessed as change in FGF2 mRNA level at 0.5 uM after 16 hrs by microarray analysis relative to untreated control; assay type: functional, cell-based; settings: U-87MG ATCC
[21] = Disregulation of cell survival related gene expression in human U87 cells assessed as change in FGF18 mRNA level at 0.5 uM after 16 hrs by microarray analysis relative to untreated control; assay type: functional, cell-based; settings: U-87MG ATCC
[22] = Disregulation of cell cycle related gene expression in human U87 cells assessed as change in cyclin D mRNA level at 0.5 uM after 16 hrs by microarray analysis relative to untreated control; assay type: functional, cell-based; settings: U-87MG ATCC
[23] = Disregulation of cell cycle related gene expression in human U87 cells assessed as change in CCPG1 mRNA level at 0.5 uM after 16 hrs by microarray analysis relative to untreated control; assay type: functional, cell-based; settings: U-87MG ATCC
[24] = Disregulation of cell cycle related gene expression in human U87 cells assessed as change in CDK2 mRNA level at 0.5 uM after 16 hrs by microarray analysis relative to untreated control; assay type: functional, cell-based; settings: U-87MG ATCC
[25] = Disregulation of cell cycle related gene expression in human U87 cells assessed as change in cyclin F mRNA level at 0.5 uM after 16 hrs by microarray analysis relative to untreated control; assay type: functional, cell-based; settings: U-87MG ATCC
[26] = Disregulation of cell cycle related gene expression in human U87 cells assessed as change in CDC6 mRNA level at 0.5 uM after 16 hrs by microarray analysis relative to untreated control; assay type: functional, cell-based; settings: U-87MG ATCC
[27] = Disregulation of cell cycle related gene expression in human U87 cells assessed as change in CDC25A mRNA level at 0.5 uM after 16 hrs by microarray analysis relative to untreated control; assay type: functional, cell-based; settings: U-87MG ATCC
[28] = Disregulation of cell cycle related gene expression in human U87 cells assessed as change in cyclin E2 mRNA level at 0.5 uM after 16 hrs by microarray analysis relative to untreated control; assay type: functional, cell-based; settings: U-87MG ATCC
[29] = Disregulation of cell cycle related gene expression in human U87 cells assessed as change in EDN1 mRNA level at 0.5 uM after 3 hrs by microarray analysis relative to untreated control; assay type: functional, cell-based; settings: U-87MG ATCC
[30] = Disregulation of cell cycle related gene expression in human U87 cells assessed as change in SKP2 mRNA level at 0.5 uM after 16 hrs by microarray analysis relative to untreated control; assay type: functional, cell-based; settings: U-87MG ATCC
[31] = Disregulation of cell cycle related gene expression in human U87 cells assessed as change in CDCA7 mRNA level at 0.5 uM after 16 hrs by microarray analysis relative to untreated control; assay type: functional, cell-based; settings: U-87MG ATCC
[32] = Disregulation of cell development related gene expression in human U87 cells assessed as change in HOXA6 mRNA level at 0.5 uM after 16 hrs by microarray analysis relative to untreated control; assay type: functional, cell-based; settings: U-87MG ATCC
[33] = Disregulation of cell development related gene expression in human U87 cells assessed as change in ISL2 mRNA level at 0.5 uM after 16 hrs by microarray analysis relative to untreated control; assay type: functional, cell-based; settings: U-87MG ATCC
U-87MG ATCC [34] = assay: Antiproliferative activity against human U87 cells expressing GFP assessed as apparent cell death at 20 uM after 3 days by flash-cytometry; assay type: functional, cell-based
[35] = Disregulation of inflammation related gene expression in human U87 cells assessed as change in IL1A mRNA level at 0.5 uM after 16 hrs by microarray analysis relative to untreated control; assay type: functional, cell-based; settings: U-87MG ATCC

Cc1ccc(CN(Cc2ccc(O)c3ncccc23)Cc2ccc(O)c3ncccc23)cc1
3: fold change (FC) [4] | fold change (FC) [5] | fold change (FC) [7] | fold change (FC) [8] | fold change (FC) [9] | fold change (FC) [10] | fold change (FC) [12] | fold change (FC) [14] | fold change (FC) [16] | fold change (FC) [17] | fold change (FC) [18] | fold change (FC) [19] | fold change (FC) [20] | fold change (FC) [21] | fold change (FC) [22] | fold change (FC) [23] | fold change (FC) [24] | fold change (FC) [25] | fold change (FC) [26] | fold change (FC) [27] | fold change (FC) [28] | fold change (FC) [30] | fold change (FC) [31] | fold change (FC) [32] | fold change (FC) [33]
inactive: Activity (U-87MG ATCC [34])
> 1.4: fold change (FC) [6] | fold change (FC) [11] | fold change (FC) [13] | fold change (FC) [15] | fold change (FC) [29]
> 6.70: pEC50 [1]
active: Activity (U-87MG ATCC [2]) | Activity [35]
7.28: pIC50 [3]
